Publication PMC9558223, “Staphylococcus aureus is able to generate resistance to novel lipoglycopeptide antibiotic gausemycin A” (Frontiers in Microbiology, 2022)

How the values were obtained:
[1] = test system: Staphylococcus aureus FDA209 P; test: ID32 Staph strip, resistance (novobiocin); format: cell-based; settings: colorimetric test
Experimental: (§1) The biochemical properties were assayed using the ID32 Staph strip (BioMerieux, France), which consists of a set of wells containing dried biochemical media for colorimetric tests.

[2] = test system: Staphylococcus aureus 5812R; test: ID32 Staph strip, resistance (novobiocin); format: cell-based; settings: colorimetric test
Experimental: as §1

[3] = test system: S. aureus FDA209P; test: Serial passaging in increasing concentrations of antimicrobials; format: cell-based, Staphylococcus aureus; settings: for The highest concentration of antibiotic allowing growth: Mueller-Hinton II broth (CaCl2 50 mg/L), 37 °C, 24 h
Experimental: Gausemycin A-resistant variant was obtained by serial passaging as described previously (Pollard et al., [2012]). Isolated colonies of S. aureus FDA209P were inoculated into Mueller-Hinton II broth (CaCl2 50 mg/L) containing twofold dilutions of gausemycin A. The cultures were incubated at 37 °C with aeration for 24 h. After incubation, bacterial cells growing at the highest concentration of gausemycin A (below the MIC) were harvested and used for the next passage. The process was repeated for 20 passages. The dynamic of the developing resistance to gausemycin A was evaluated in comparison with daptomycin and ramoplanin. The experiments were performed in two independent series on separate days with three technical replicates each.

[4] = test system: S. aureus 5812R; test: Resistance stability testing (passaging in drug-free medium); format: cell-based, Staphylococcus aureus; settings: 17 passages in gausemycin A-free Muller-Hinton broth
Experimental: The overnight culture of S. aureus 5812R was sub-cultured in gausemycin A-free Muller-Hinton broth and incubated overnight at 37°C with shaking. The obtained culture was evaluated on susceptibility to gausemycin A in the MIC assay as described previously. Passaging in the drug-free medium was repeated 17 times. The experiments were performed in two independent series on separate days with three technical replicates each.

[5] = test system: biofilm-embedded staphylococcal cells; settings: ref Vasilchenko et al., 2020; cited from earlier work
Excerpt: These lipoglycopeptides were firstly described in 2016 (Lapchinskaya et al., [2016]), and consequently named gausemycins A and B (Tyurin et al., [2021]). Gausemycin A is a macrocyclic peptide containing 14 amino acids, where tyrosine is glycosylated with arabinose, which makes gausemycin A unique among natural peptide antibiotics (Tyurin et al., [2021]). The closest structurally related compounds are depsipeptides (daptomycin, taromycins, and cadazides) and cyclopeptides ( ...

[6] = test system: S. aureus 5812R; test: microbe, parasite or virus in culture; format: cell-based, Staphylococcus aureus
Experimental: (§2) Minimal inhibitory concentration (MIC) was determined as previously described in Fuchs et al. ([2000]), following the Clinical and Laboratory Standards Institute (CLSI) guidelines for broth microdilution MIC assay. The bacteria were incubated in a 96-well microtiter plate (Eppendorf, Germany) containing 90 μL of inoculum prepared in growth media at 10^6 CFU/ml with 10 μL of twofold dilutions of the antibiotics. The results were evaluated after 24 h of cultivation at 37 °C. The bacterial growth was assessed by scanning the absorbance data at 600 nm obtained by spectrophotometer (Multiscan GO, Thermo Fisher Scientific, US).

[7] = test system: S. aureus FDA209P; test: microbe, parasite or virus in culture; format: cell-based, Staphylococcus aureus; settings: broth microdilution (CLSI), 10^6 CFU/ml, 24 h, 37 °C, absorbance at 600 nm
Experimental: as §2

[8] = test system: S. aureus 5812R; test: Membrane integrity assay (SYTO 9 / propidium iodide); format: cell-based, Staphylococcus aureus; settings: 10 mM HEPES, 1.25 mM Ca2+, 10^8 CFU/ml, end-point 10 min
Experimental: (§3) Membrane integrity was assessed using the fluorescent probes SYTO 9 and propidium iodide (PI) (LIVE/DEAD BacLight Bacterial Viability Kit, Molecular Probes, USA). The test strains were grown to the mid-log phase. The obtained cultures were centrifuged at 10,000 rpm for 10 min, the supernatant was discarded and the pellet was dispersed in 10 mM HEPES buffer supplemented with 1.25 mM Ca ^2+ to an optical density of 0.2 (OD 600) that corresponded to 10^8 CFU/ml. Bacterial cells in 50 μl were transferred to a 96-well microtiter plate (Eppendorf, US). SYTO 9 fluorescence kinetics was measured using Fluoroscan Ascent FL plate reader (Thermo Scientific, US) at 485 nm excitation and 535 nm of emission wavelengths as described earlier (Vasilchenko et al., [2020]). The assay was performed twice in three technical replicates.
(§4) Microscopy was performed using a Zeiss Axio Imager A2 fluorescent microscope (Carl Zeiss, Germany) equipped with filter sets useful for simultaneous viewing of SYTO 9 and PI stains.

[9] = test system: S. aureus FDA209P; test: as above; format: cell-based, Staphylococcus aureus; settings: 10 mM HEPES, 1.25 mM Ca2+, 10^8 CFU/ml, end-point 10 min
Experimental: as §3, §4

In the case of `CO[C@@H]1[C@@H](OC(N)=O)[C@@H](O)[C@H](Oc2ccc3c(O)c(NC(=O)c4ccc(O)c(CC=C(C)C)c4)c(=O)oc3c2C)OC1(C)C` [novobiocin], the “Resistance (Novobiocin)” value [1] is reported as “Positive” and the “Resistance (Novobiocin)” value [2] is reported as “Positive”.

For Gausemycin A, the “The highest concentration of antibiotic allowing growth” value (“The highest concentration” for short) ([3]; passage 1) was 2.5 µg/mL, the “The highest concentration” value ([3]; passage 2) was 2.5 µg/mL and the “The highest concentration” value ([3]; passage 3) was 5 µg/mL. The “The highest concentration” value ([3]; passage 4) was 5 µg/mL, the “The highest concentration” value ([3]; passage 5) was 5 µg/mL and the “The highest concentration” value ([3]; passage 6) was 5 µg/mL. The “The highest concentration” value ([3]; passage 7) was 5 µg/mL, the “The highest concentration” value ([3]; passage 8) was 10 µg/mL and the “The highest concentration” value ([3]; passage 9) was 20 µg/mL. For the same compound, the “The highest concentration” value ([3]; passage 10) was 40 µg/mL, the “The highest concentration” value ([3]; passage 11) was 40 µg/mL and the “The highest concentration” value ([3]; passage 12) was 40 µg/mL. The “The highest concentration” value ([3]; passage 13) was 50 µg/mL, the “The highest concentration” value ([3]; passage 14) was 100 µg/mL and the “The highest concentration” value ([3]; passage 15) was 100 µg/mL. The “The highest concentration” value ([3]; passage 16) was 100 µg/mL, the “The highest concentration” value ([3]; passage 17) was 150 µg/mL and the “The highest concentration” value ([3]; passage 18) was 200 µg/mL. The “The highest concentration” value ([3]; passage 19) was 200 µg/mL, the “The highest concentration” value ([3]; passage 20) was >200 µg/mL and the “Number of passages within which resistance was formed” value ([3]; serial passages with sub-inhibitory concentrations) was ≤ 20 passages. For the same compound, the “Stability of resistance (MIC after passaging in drug-free medium)” value [4] was “did not change the MIC value”, the “Inhibition of biofilm-embedded staphylococcal cells” value [5] was “able to inhibit” and the MIC ([6]; S. aureus 5812R, broth microdilution (CLSI), 10^6 CFU/ml, 24 h, 37 °C, absorbance at 600 nm) was >200 µg/mL. The “Change of MIC / resistance of S. aureus 5812R compared to parent strain S. aureus FDA209P” value ([6]; ratio of MIC for 5812R and FDA209P) was 80 fold, the MIC [7] was 2.5 µg/mL and the “Quenching of SYTO9 fluorescence” value [8] was “not achieved at all taken concentrations”. For the same compound, the “Concentration giving complete quenching of SYTO9 fluorescence” value [9] was 50 µg/mL.
